Data set [1] relates to IL-6. Put plainly: IL-6 ELISA in supernatant of LPS-stimulated HaCaT cells. Format: cell-based, human. To be noted: 12 h pretreatment then LPS 12 h. How it is done:
HaCaT cells were seeded in a 24-well plate at a density of 5 × 10^4 cells/well and maintained in DMEM high glucose with 10% FBS until an 80% confluent monolayer was reached. […] Control experiments with LPS-treated cells only were conducted. Controls with cells treated with neither compounds nor LPS were also performed. After that, the cell culture supernatant was collected, and the IL-6 cytokine was measured using an ELISA kit.

The subject of data set [2] is fibroblasts (NIH/3T3 cells). Put plainly: cells. To be noted: NIH/3T3, 24 h, neutral red uptake. As for the experimental part: (§1) Finally, control experiments with non-treated cells were performed.
The effect of the compounds on the viability of murine 3T3 fibroblasts was estimated using NRU assay. After the incubation time (24 h) cells, media were removed, then to each well we added 100 µL of medium containing neutral red (50 µg/mL). […] The plates were shaken for 10 min at room temperature. Then, the absorption at 540 nm was measured using a microplate reader (Biosan). The results were calculated for each sample concentration as a percentage of medium control. The values are presented as mean ± standard deviation of three independent experiments.

The nature of data set [3]: Solubility in typical solvents, modified Vogel method. The following applies: 25 °C; for Solubility in Water (63.1): ET(30) in parentheses.
Excerpt: For this purpose, dimethyl sulfoxide, ethanol, chloroform, ethyl acetate, diethyl ether, toluene, and n-hexane were used as solvents.
Data set [4] is described as follows: Solubility in water, HPLC of saturated solutions. The following applies: 25 °C; g of compound per dm^3. As for the experimental part: Then, the obtained saturated solutions were diluted 100 times and analyzed. […] A mixture of 50% acetonitrile and 50% water was used as the mobile phase. The flow rate was 1 cm^3·min^−1. The column temperature was 30 °C. A Luna® Omega 3 µm Polar C18 100 Å column with dimensions of 150 × 4.6 mm was used. The injection volume for these samples was 50 mm^3. Each measurement was performed in triplicate, and the results were averaged.

The subject of data set [5] is human keratinocytes (HaCaT cells). Put plainly: MTT viability assay. The following applies: for Viability of HaCaT after 48 h Treatment with 0.4 mM IL or SA: calculated as percentage of medium control, in %; for IC50: HaCaT, 24 h, MTT. As for the experimental part: as §1
We applied an assay based on the reduction of methyl thiazol tetrazolium bromide (MTT) to assess the effect of the compounds on the viability of HaCaT cells. […] After that, the cells were lysed with a solution of DMSO:ethanol (1:1 v/v). The absorbance of the reduced formazan dye product was read at 560 nm in a microplate reader (Biosan). The results were calculated for each sample concentration as a percentage of medium control. The values are presented as mean ± standard deviation of three independent experiments.

The conditions of data set [6]: TG, air atmosphere, 10 °C·min^−1.
[7] abbreviates: the two tested concentrations (1 and 10 µM).

Read-outs that look alike come from different tables or passages of the source.

In the case of `CCOC(=O)[C@@H](N)CC(C)C.O=C(O)c1ccccc1O` [[LeuOEt][SA], L-leucine ethyl ester salicylate], in data set [1] (1 µM), the “Level of IL-6 in LPS-stimulated HaCaT” value is listed as “no effect or negligible inhibition of the IL-6 production”. In addition, the IC50 was 894 ± 12 µg/mL in data set [2] and ~3 mM in data set [2] (read-out: IC50 (in mM)).

In the case of `CCOC(=O)[C@@H](N)Cc1ccccc1.O=C(O)c1ccccc1O` [[PheOEt][SA], L-phenylalanine ethyl ester salicylate], in data set [3], the “Solubility in Chloroform (39.1)” value is “+ (soluble >100 mg·cm^−3)”, the “Solubility in DMSO (45.1)” value was “+ (soluble >100 mg·cm^−3)”, the “Solubility in Diethyl ether (34.5)” value is reported as “+ (soluble >100 mg·cm^−3)” and the “Solubility in Ethanol (51.9)” value was “+/− (partially soluble 33–100 mg·cm^−3)”. Further, in data set [3], the “Solubility in Ethyl Acetate (38.1)” value was “+/− (partially soluble 33–100 mg·cm^−3)”, the “Solubility in Toluene (33.9)” value is “− (insoluble < 33 mg·cm^−3)”, the “Solubility in n-Hexane (31.0)” value is listed as “− (insoluble < 33 mg·cm^−3)” and the “Solubility in Water (63.1)” value is “− (insoluble < 33 mg·cm^−3)”. Besides, the “Solubility in Water at 25 °C” value in data set [4] was 9.732 ± 0.010 g·dm^−3. The “Level of IL-6 in LPS-stimulated HaCaT” value in data set [1] (setting [7]) was “comparable to those produced by 1 µM SA”. In addition, in data set [5], the “Viability of HaCaT after 48 h Treatment with 0.4 mM IL or SA” value (“Viability of HaCaT after 48 h Treatment” for short) is on record as 105 ± 4 and the IC50 was found to be 2200 ± 150 µg/mL. Moreover, the IC50 in data set [5] (read-out: IC50 (in mM)) is ~6.6 mM. For the same molecule, in data set [2], the IC50 turned out to be 1062 ± 15 µg/mL. Moreover, the IC50 in data set [2] (read-out: IC50 (in mM)) was ~3.2 mM. Besides, the “Tonset, the onset of the thermal degradation” value (“Tonset, the onset” below) in data set [6] was 181.1 °C.

Turning to `CCCOC(=O)[C@@H](N)Cc1ccccc1.O=C(O)c1ccccc1O` [[PheOPr][SA], L-phenylalanine propyl ester salicylate], in data set [3], the “Solubility in Chloroform (39.1)” value is listed as “+ (soluble >100 mg·cm^−3)”, the “Solubility in DMSO (45.1)” value was “+ (soluble >100 mg·cm^−3)”, the “Solubility in Diethyl ether (34.5)” value is on record as “+ (soluble >100 mg·cm^−3)” and the “Solubility in Ethanol (51.9)” value is “+/− (partially soluble 33–100 mg·cm^−3)”. Moreover, in data set [3], the “Solubility in Ethyl Acetate (38.1)” value was “+/− (partially soluble 33–100 mg·cm^−3)”, the “Solubility in Toluene (33.9)” value was “− (insoluble < 33 mg·cm^−3)”, the “Solubility in n-Hexane (31.0)” value is reported as “− (insoluble < 33 mg·cm^−3)” and the “Solubility in Water (63.1)” value is on record as “− (insoluble < 33 mg·cm^−3)”. Besides, the “Solubility in Water at 25 °C” value in data set [4] turned out to be 1.143 ± 0.001 g·dm^−3. The “Level of IL-6 in LPS-stimulated HaCaT” value in data set [1] (1 µM) is listed as “completely protected from inflammation”. In data set [1] (10 μM), the “Level of IL-6 in LPS-stimulated HaCaT” value was “no effect or negligible inhibition of the IL-6 production”. For the same molecule, in data set [5], the “Viability of HaCaT after 48 h Treatment” value is recorded as 93 ± 4 and the IC50 amounted to 650 ± 100 µg/mL. Further, the IC50 in data set [5] (read-out: IC50 (in mM)) was ~1.9 mM. The molecule also had an IC50 in data set [2] of 662 ± 9 µg/mL. Also, the IC50 in data set [2] (read-out: IC50 (in mM)) was ~1.9 mM. Moreover, the “Tonset, the onset” value in data set [6] came to 185.0 °C.

With `CCCCOC(=O)[C@@H](N)C(C)C.O=C(O)c1ccccc1O` [[ValOBu][SA], L-valine butyl ester salicylate], in data set [3], the “Solubility in Chloroform (39.1)” value is reported as “+ (soluble >100 mg·cm^−3)”, the “Solubility in DMSO (45.1)” value is listed as “+ (soluble >100 mg·cm^−3)”, the “Solubility in Diethyl ether (34.5)” value is “+ (soluble >100 mg·cm^−3)” and the “Solubility in Ethanol (51.9)” value is reported as “+/− (partially soluble 33–100 mg·cm^−3)”. Further, in data set [3], the “Solubility in Ethyl Acetate (38.1)” value is given as “+ (soluble >100 mg·cm^−3)”, the “Solubility in Toluene (33.9)” value is “+ (soluble >100 mg·cm^−3)”, the “Solubility in n-Hexane (31.0)” value is “− (insoluble < 33 mg·cm^−3)” and the “Solubility in Water (63.1)” value is “+/− (partially soluble 33–100 mg·cm^−3)”. The “Solubility in Water at 25 °C” value in data set [4] is on record as 14.490 ± 0.014 g·dm^−3. In data set [5], the “Viability of HaCaT after 48 h Treatment” value is 74 ± 1 and the IC50 was 600 ± 200 µg/mL. In addition, in data set [5] (read-out: IC50 (in mM)), the IC50 is ~1.9 mM. Moreover, the IC50 in data set [2] turned out to be 309 ± 9 µg/mL. For the same molecule, the IC50 in data set [2] (read-out: IC50 (in mM)) was ~1 mM. Further, the “Tonset, the onset” value in data set [6] came to 171.8 °C.

For the molecule `CCOC(=O)[C@@H](N)C(C)C.O=C(O)c1ccccc1O` [[ValOEt][SA], L-valine ethyl ester salicylate], in data set [3], the “Solubility in Chloroform (39.1)” value was “+ (soluble >100 mg·cm^−3)”, the “Solubility in DMSO (45.1)” value is recorded as “+ (soluble >100 mg·cm^−3)”, the “Solubility in Diethyl ether (34.5)” value is “+ (soluble >100 mg·cm^−3)” and the “Solubility in Ethanol (51.9)” value is given as “+ (soluble >100 mg·cm^−3)”. In data set [3], the “Solubility in Ethyl Acetate (38.1)” value was “+ (soluble >100 mg·cm^−3)”, the “Solubility in Toluene (33.9)” value is “+ (soluble >100 mg·cm^−3)”, the “Solubility in n-Hexane (31.0)” value is listed as “− (insoluble < 33 mg·cm^−3)” and the “Solubility in Water (63.1)” value is “+/− (partially soluble 33–100 mg·cm^−3)”. The “Solubility in Water at 25 °C” value in data set [4] turned out to be 26.070 ± 0.026 g·dm^−3. In addition, the “Level of IL-6 in LPS-stimulated HaCaT” value in data set [1] (setting [7]) is reported as “comparable to those produced by 1 µM SA”. For the same molecule, in data set [5], the “Viability of HaCaT after 48 h Treatment” value was 74 ± 2 and the IC50 is 600 ± 10 µg/mL. For the same molecule, in data set [5] (read-out: IC50 (in mM)), the IC50 was ~2.1 mM. The same molecule yielded an IC50 in data set [2] of 700 ± 8 µg/mL. For the same molecule, the half-inhibitory concentration (IC50) in data set [2] (read-out: IC50 (in mM)) is ~2.5 mM. Moreover, the “Tonset, the onset” value in data set [6] worked out at 157.6 °C.

As for `CCCOC(=O)[C@@H](N)C(C)C.O=C(O)c1ccccc1O` [[ValOPr][SA], L-valine propyl ester salicylate], in data set [3], the “Solubility in Chloroform (39.1)” value is recorded as “+ (soluble >100 mg·cm^−3)”, the “Solubility in DMSO (45.1)” value is recorded as “+ (soluble >100 mg·cm^−3)”, the “Solubility in Diethyl ether (34.5)” value is “+ (soluble >100 mg·cm^−3)” and the “Solubility in Ethanol (51.9)” value is listed as “+ (soluble >100 mg·cm^−3)”. Further, in data set [3], the “Solubility in Ethyl Acetate (38.1)” value is “+ (soluble >100 mg·cm^−3)”, the “Solubility in Toluene (33.9)” value is “+ (soluble >100 mg·cm^−3)”, the “Solubility in n-Hexane (31.0)” value is recorded as “− (insoluble < 33 mg·cm^−3)” and the “Solubility in Water (63.1)” value was “+/− (partially soluble 33–100 mg·cm^−3)”. In data set [4], the “Solubility in Water at 25 °C” value was 21.789 ± 0.024 g·dm^−3. In addition, in data set [5], the “Viability of HaCaT after 48 h Treatment” value is recorded as 74 ± 2 and the IC50 amounted to 500 ± 50 µg/mL. Moreover, the IC50 in data set [5] (read-out: IC50 (in mM)) is ~1.8 mM. In addition, the IC50 in data set [2] was found to be 1310 ± 17 µg/mL. In addition, the “Tonset, the onset” value in data set [6] worked out at 177.9 °C.

`CC(C)OC(=O)[C@@H](N)C(C)C.O=C(O)c1ccccc1O` [[ValOiPr][SA], L-valine isopropyl ester salicylate]: in data set [3], the “Solubility in Chloroform (39.1)” value is reported as “+ (soluble >100 mg·cm^−3)”, the “Solubility in DMSO (45.1)” value is reported as “+ (soluble >100 mg·cm^−3)”, the “Solubility in Diethyl ether (34.5)” value was “+/− (partially soluble 33–100 mg·cm^−3)” and the “Solubility in Ethanol (51.9)” value is reported as “+ (soluble >100 mg·cm^−3)”. In data set [3], the “Solubility in Ethyl Acetate (38.1)” value is recorded as “+/− (partially soluble 33–100 mg·cm^−3)”, the “Solubility in Toluene (33.9)” value is “+ (soluble >100 mg·cm^−3)”, the “Solubility in n-Hexane (31.0)” value is on record as “− (insoluble < 33 mg·cm^−3)” and the “Solubility in Water (63.1)” value is given as “+/− (partially soluble 33–100 mg·cm^−3)”. The “Solubility in Water at 25 °C” value in data set [4] is 18.458 ± 0.018 g·dm^−3. Further, in data set [1] (10 μM), the “Level of IL-6 in LPS-stimulated HaCaT” value is reported as “no effect or negligible inhibition of the IL-6 production”. In addition, in data set [5], the “Viability of HaCaT after 48 h Treatment” value is reported as 66 ± 2 and the IC50 came to 900 ± 50 µg/mL. The IC50 in data set [5] (read-out: IC50 (in mM)) was ~3.1 mM. The IC50 in data set [2] is 658 ± 7 µg/mL. Moreover, the IC50 in data set [2] (read-out: IC50 (in mM)) is ~2.2 mM. Moreover, the “Tonset, the onset” value in data set [6] was determined as 163.1 °C.

These data come from paper PMC8746858 (Molecules, 2021).
